Earlier results as cited in patent US20230398047A1, “COMPOSITION COMPRISING SKIN CARE ACTIVE INGREDIENT AND TWO POLYGLYCERYL FATTY ACID ESTERS” (L'OREAL, priority 2021, published 2023).

Settings: octan-1-ol/water; values said to be known or calculated

logP | Compound
3-O-ETHYL ASCORBIC ACID (LogP = −1.3) | CCOC1=C(O)C(=O)O[C@@H]1[C@@H](O)CO [3-O-ETHYL ASCORBIC ACID, 3-O-ethyl ascorbic acid]
ASCORBYL GLUCOSIDE (logP = −3.4) | O=C1O[C@H]([C@@H](O)CO)C(O)=C1O[C@H]1O[C@H](CO)[C@@H](O)[C@H](O)[C@H]1O [ASCORBYL GLUCOSIDE, ascorbyl glucoside]
PHENYLETHYL RESORCINOL(logP = 3.07) | CC(c1ccccc1)c1ccc(O)cc1O (centres unmarked) [PHENYLETHYL RESORCINOL, 4-(1-phenylethyl)-1,3-benzenediol]

More lines, now with the values behind:

Compound | logP
CC(O)C[C@H]1OC[C@@H](O)[C@H](O)[C@H]1O (stereo partly drawn) [HYDROXYPROPYL TETRAHYDROPYRANTRIOL, C-beta-D-xylopyranoside-2-hydroxpropane] | HYDROXYPROPYL TETRAHYDROPYRANTRIOL (logP = −1.5)
NC(=O)c1cccnc1 [NIACINAMIDE, niacinamide, reference compound] | NIACINAMIDE (LogP = −0.37)
